IC50 and EC50 data for 49 compounds are collected here from patent US9169199B2, “Cycloalkyl guanidine F1F0-ATPase inhibitors and therapeutic uses thereof” (Lycera Corporation, priority 2010, dated 2015).

SMILES strings stand for the structures.

The target of assay [1] is T1, F1F0-ATPase (Bos taurus, UniProt P13621).
T1 construct: from tissue
In words: Inhibition of ATP synthesis by the F1F0-ATPase. It is filed as biochemical. The protocol: (§1) Compounds in Example 4 above were tested for activity against F1F0-ATPase by measuring ATP synthesis. In addition, the compounds were assessed for cytotoxicity in Ramos cells. Inhibition of ATP synthesis by the F1F0-ATPase and cytotoxicity in Ramos cells were measured according to the procedures described in K. M. Johnson et al. Chemistry & Biology 2005, 12, 485-496.

In assay [2] the test system is Ramos cells. In words: Cytotoxicity in Ramos cells. Type of assay: cell-based. As to conditions: Homo sapiens, read-out: Ramos cell EC50. The method, then: as §1

`CCOC(=O)N[C@H]1CC[C@H](N/C(=N\C(=O)c2ccc(F)c(F)c2)NCc2ccccc2C(F)(F)F)CC1` [Compound 50]: the IC50 in assay [1] is less than 10 µM. Besides, the EC50 in assay [2] is less than 10 µM.
`CCOC(=O)N[C@H]1CC[C@H](N/C(=N\C(=O)c2ccc(F)c(F)c2)NCc2cccc(C(F)(F)F)c2)CC1` [Compound 51] gave an IC50 in assay [1] of less than 10 µM. In addition, in assay [2], the EC50 is less than 10 µM.
As to `CCOC(=O)N[C@H]1CC[C@H](N/C(=N\C(=O)c2ccc(F)c(F)c2)NCc2ccc(C(F)(F)F)cc2)CC1` [Compound 52], the IC50 in assay [1] is less than 10 µM. Moreover, the EC50 in assay [2] was less than 10 µM.
For the compound `CCOC(=O)N[C@H]1CC[C@H](N/C(=N\C(=O)c2ccc(F)c(F)c2)NCc2ccccc2F)CC1` [Compound 53], the IC50 in assay [1] is less than 10 µM. The EC50 in assay [2] was less than 10 µM.
With `CCOC(=O)N[C@H]1CC[C@H](N/C(=N\C(=O)c2ccc(F)c(F)c2)NCc2cccc(F)c2)CC1` [Compound 54], the IC50 in assay [1] is less than 10 µM. For the same compound, in assay [2], the EC50 is less than 10 µM.
As for `CCOC(=O)N[C@H]1CC[C@H](N/C(=N\C(=O)c2ccc(F)c(F)c2)NCc2cc(F)ccc2F)CC1` [Compound 55], the IC50 in assay [1] was less than 10 µM. Moreover, the EC50 in assay [2] is less than 10 µM.
In assay [1], `CCOC(=O)N[C@H]1CC[C@H](N/C(=N\C(=O)c2ccc(F)c(F)c2)NCc2ccc(F)c(F)c2)CC1` [Compound 56] came in with an IC50 of less than 10 µM. Further, in assay [2], the EC50 is less than 10 µM.
`CCOC(=O)N[C@H]1CC[C@H](N/C(=N\C(=O)c2ccc(F)c(F)c2)NCc2cccc(F)c2F)CC1` [Compound 57] registered an IC50 in assay [1] of less than 10 µM. Moreover, the EC50 in assay [2] was less than 10 µM.
Regarding `CCOC(=O)N[C@H]1CC[C@H](N/C(=N\C(=O)c2ccc(F)c(F)c2)NCc2ccc(F)cc2F)CC1` [Compound 58], the IC50 in assay [1] is less than 10 µM. For the same compound, the EC50 in assay [2] was less than 10 µM.
With `CCOC(=O)N[C@H]1CC[C@H](N/C(=N\C(=O)c2ccc(F)c(F)c2)NCc2cc(F)cc(F)c2)CC1` [Compound 59], the IC50 in assay [1] is less than 10 µM. Moreover, in assay [2], the EC50 was less than 10 µM.
On to `CCOC(=O)N[C@H]1CC[C@H](N/C(=N\C(=O)c2ccc(F)c(F)c2)NCc2ccc(F)cc2Cl)CC1` [Compound 60], for which, in assay [1], the IC50 was less than 10 µM. For the same compound, the EC50 in assay [2] was less than 10 µM.
In turn, `CCOC(=O)N[C@H]1CC[C@H](N/C(=N\C(=O)c2ccc(F)c(F)c2)NCc2ccc(F)c(Cl)c2)CC1` [Compound 61] gave an IC50 in assay [1] of less than 10 µM. The concentration for a half-maximal effect (EC50) in assay [2] is less than 10 µM.
In assay [1], `CCOC(=O)N[C@H]1CC[C@H](N/C(=N\C(=O)c2ccc(F)c(F)c2)NCc2ccc(Cl)c(F)c2)CC1` [Compound 62] registered an IC50 of less than 10 µM. Besides, in assay [2], the EC50 was less than 10 µM.
`CCOC(=O)N[C@H]1CC[C@H](N/C(=N\C(=O)c2ccc(F)c(F)c2)NCc2ccc(Cl)cc2F)CC1` [Compound 63] gave a half-maximal inhibitory concentration (IC50) in assay [1] of less than 10 µM. Besides, in assay [2], the EC50 is less than 10 µM.
`CCOC(=O)N[C@H]1CC[C@H](N/C(=N\C(=O)c2ccc(F)c(F)c2)Nc2ccccc2C2CC2)CC1` [Compound 66] showed an IC50 in assay [1] of less than 10 µM. Further, in assay [2], the EC50 was less than 10 µM.
With `O=C(/N=C(/Nc1ccccc1C1CC1)N[C@H]1CC[C@H](Nc2ncccn2)CC1)c1ccc(F)c(F)c1` [Compound 67], the 50% inhibitory concentration (IC50) in assay [1] was less than 10 µM. In addition, in assay [2], the EC50 was greater than 10 µM.
Regarding `O=C(/N=C(/Nc1ccc(Cl)c(F)c1)N[C@H]1CC[C@H](O)CC1)c1ccc(C(F)(F)F)cc1` [Compound 68], in assay [1], the IC50 is less than 10 µM. Further, in assay [2], the EC50 is less than 10 µM.
For the compound `O=C(/N=C(/Nc1cccc(Cl)c1F)N[C@H]1CC[C@H](O)CC1)c1ccc(C(F)(F)F)cc1` [Compound 69], in assay [1], the 50% inhibitory concentration (IC50) is less than 10 µM. The EC50 in assay [2] is less than 10 µM.
The compound `O=C(Cc1ccc(Cl)cc1)/N=C(\Nc1cc(F)cc(Cl)c1)N[C@H]1CC[C@H](O)CC1` [Compound 71] registered an IC50 in assay [1] of less than 10 µM. Also, the EC50 in assay [2] was greater than 10 µM.
In assay [1], `O=C(/N=C(/NCc1ccc(Cl)cc1F)N[C@H]1CC[C@H](Nc2ncccn2)CC1)c1ccc(F)c(F)c1` [Compound 72] showed an IC50 of less than 10 µM. Moreover, the EC50 in assay [2] is less than 10 µM.
For the compound `O=C(/N=C(/NCc1ccc(F)cc1Cl)N[C@H]1CC[C@H](Nc2ncccn2)CC1)c1ccc(F)c(F)c1` [Compound 73], the half-inhibitory concentration (IC50) in assay [1] is less than 10 µM. Also, the EC50 in assay [2] was less than 10 µM.
`O=C(/N=C(/NCc1ccc(F)c(Cl)c1)N[C@H]1CC[C@H](Nc2ncccn2)CC1)c1ccc(F)c(F)c1` [Compound 74] displayed an IC50 in assay [1] of less than 10 µM. Moreover, the EC50 in assay [2] is less than 10 µM.
In assay [1], `O=C(/N=C(/NCc1ccc(Cl)c(F)c1)N[C@H]1CC[C@H](Nc2ncccn2)CC1)c1ccc(F)c(F)c1` [Compound 75] returned an IC50 of less than 10 µM. The EC50 in assay [2] was less than 10 µM.
Compound `CCOC(=O)N[C@H]1CC[C@H](N/C(=N\C(=O)c2ccc(F)c(F)c2)NC2CCCCC2)CC1` [Compound 76] displayed an IC50 in assay [1] of less than 10 µM. Besides, the EC50 in assay [2] is greater than 10 µM.
Turning to `CCOC(=O)N[C@H]1CC[C@H](N/C(=N\C(=O)c2ccc(F)c(F)c2)NC2CCC(C)CC2)CC1` (some centres unmarked) [Compound 77], the IC50 in assay [1] was less than 10 µM. The EC50 in assay [2] is less than 10 µM.
The compound `CC(C)(C)OC(=O)N[C@H]1CC[C@H](N/C(=N\C(=O)c2ccc(F)c(F)c2)Nc2cccc(Cl)c2)CC1` [Compound 78] yielded an IC50 in assay [1] of less than 10 µM. Also, the EC50 in assay [2] was less than 10 µM.
`N[C@H]1CC[C@H](N/C(=N\C(=O)c2ccc(F)c(F)c2)Nc2cccc(Cl)c2)CC1` [Compound 79]: the IC50 in assay [1] was greater than 10 µM. Besides, the EC50 in assay [2] is less than 10 µM.
Regarding `CCOC(=O)N[C@H]1CC[C@H](N/C(=N\C(=O)c2ccc(F)c(F)c2)Nc2cc(C(C)(C)C)on2)CC1` [Compound 80], the IC50 in assay [1] was greater than 10 µM. In addition, in assay [2], the EC50 was greater than 10 µM.
In turn, `CCOC(=O)N[C@H]1CC[C@H](N/C(=N\C(=O)c2ccc(F)c(F)c2)Nc2ccc(F)c(Cl)c2)CC1` [Compound 81] returned an IC50 in assay [1] of less than 10 µM. In addition, the EC50 in assay [2] is less than 10 µM.
On to `CCOC(=O)N[C@H]1CC[C@H](N/C(=N\C(=O)c2ccc(F)c(F)c2)Nc2cccc(Cl)c2F)CC1` [Compound 82], for which the half-inhibitory concentration (IC50) in assay [1] is less than 10 µM. Besides, the EC50 in assay [2] is less than 10 µM.
Compound `O=C(/N=C(/Nc1ccc(F)c(Cl)c1)N[C@H]1CC[C@H](Nc2ncccn2)CC1)c1ccc(F)c(F)c1` [Compound 83] yielded an IC50 in assay [1] of less than 10 µM. The EC50 in assay [2] was less than 10 µM.
`O=C(/N=C(/Nc1cccc(Cl)c1F)N[C@H]1CC[C@H](Nc2ncccn2)CC1)c1ccc(F)c(F)c1` [Compound 84] registered an IC50 in assay [1] of less than 10 µM. Further, in assay [2], the EC50 is greater than 10 µM.
In assay [1], `CCOC(=O)N[C@H]1CC[C@@H](N/C(=N\C(=O)c2ccc(F)c(F)c2)Nc2cc(F)cc(Cl)c2)CC1` [Compound 85] showed an IC50 of less than 10 µM. Besides, in assay [2], the EC50 was less than 10 µM.
For `CC1CCC(N/C(=N/C(=O)c2ccc(F)c(F)c2)N[C@H]2CC[C@H](Nc3ncccn3)CC2)CC1` (some centres unmarked) [Compound 86], the IC50 in assay [1] was less than 10 µM. The EC50 in assay [2] was less than 10 µM.
Take `O=C(/N=C(/NC1CCCCC1)N[C@H]1CC[C@H](Nc2ncccn2)CC1)c1ccc(F)c(F)c1` [Compound 87]: the IC50 in assay [1] was less than 10 µM. The EC50 in assay [2] was less than 10 µM.
On to `O=C(/N=C(/Nc1cccc(Cl)c1)N[C@H]1CC[C@H](Nc2ccccn2)CC1)c1ccc(F)c(F)c1` [Compound 88], for which, in assay [1], the IC50 was less than 10 µM. Besides, the EC50 in assay [2] was less than 10 µM.
Consider `CCNC(=O)[C@H]1CC[C@@H](N/C(=N\C(=O)c2ccc(F)c(F)c2)Nc2cc(F)cc(Cl)c2)CC1` [Compound 89], for which the IC50 in assay [1] was less than 10 µM. For the same compound, the EC50 in assay [2] is less than 10 µM.
`O=C(/N=C(/NCc1ccccc1Cl)N[C@H]1CC[C@H](Nc2ncccn2)CC1)c1ccc(F)c(F)c1` [Compound 90] displayed an IC50 in assay [1] of less than 10 µM. Besides, the EC50 in assay [2] was less than 10 µM.
On to `O=C(/N=C(/NCc1ccc(Cl)cc1)N[C@H]1CC[C@H](Nc2ncccn2)CC1)c1ccc(F)c(F)c1` [Compound 91], for which, in assay [1], the IC50 is less than 10 µM. Also, the EC50 in assay [2] is less than 10 µM.
With `O=C(/N=C(/NCc1ccccc1C(F)(F)F)N[C@H]1CC[C@H](Nc2ncccn2)CC1)c1ccc(F)c(F)c1` [Compound 92], the IC50 in assay [1] was less than 10 µM. In assay [2], the EC50 is less than 10 µM.
Consider `O=C(/N=C(/NCc1cccc(C(F)(F)F)c1)N[C@H]1CC[C@H](Nc2ncccn2)CC1)c1ccc(F)c(F)c1` [Compound 93], for which the IC50 in assay [1] was less than 10 µM. The EC50 in assay [2] is less than 10 µM.
In assay [1], `O=C(/N=C(/Nc1cccc(C(F)(F)F)c1)N[C@H]1CC[C@H](Nc2ncccn2)CC1)c1ccc(F)c(F)c1` [Compound 94] showed an IC50 of less than 10 µM. Besides, the EC50 in assay [2] was less than 10 µM.
`CCOC(=O)N[C@H]1CC[C@H](N/C(=N\C(=O)c2ccc(F)c(F)c2)NC2CCC(F)(F)CC2)CC1` [Compound 95] showed an IC50 in assay [1] of less than 10 µM. In assay [2], the EC50 was greater than 10 µM.
In turn, `CS(=O)(=O)N[C@H]1CC[C@H](N/C(=N/C(=O)c2ccc(F)c(F)c2)Nc2cc(F)cc(Cl)c2)CC1` [Compound 96] had an IC50 in assay [1] of less than 10 µM. Moreover, the EC50 in assay [2] is less than 10 µM.
Turning to `CS(=O)(=O)N[C@H]1CC[C@H](N/C(=N/C(=O)c2ccc(F)c(F)c2)Nc2cccc(Cl)c2)CC1` [Compound 97], the IC50 in assay [1] was greater than 10 µM. In addition, the EC50 in assay [2] was less than 10 µM.
The compound `CCOC(=O)N[C@H]1CC[C@H](N/C(=N/C(=O)c2ccc(F)c(F)c2)Nc2ccc(F)cc2C2CC2)CC1` [Compound 98] returned an IC50 in assay [1] of less than 10 µM. Also, the EC50 in assay [2] was less than 10 µM.
In turn, `O=C(/N=C(/Nc1cc(F)cc(Cl)c1)N[C@H]1CC[C@@H](C(=O)O)CC1)c1ccc(F)c(F)c1` [Compound 99] registered an IC50 in assay [1] greater than 10 µM. For the same compound, the half-maximal effective concentration (EC50) in assay [2] was greater than 10 µM.
Take `CC(=O)N[C@H]1CC[C@H](N/C(=N\C(=O)c2ccc(F)c(F)c2)Nc2cc(F)cc(Cl)c2)CC1` [Compound 100]: the IC50 in assay [1] was less than 10 µM. The EC50 in assay [2] is less than 10 µM.
In assay [1], `O=C(/N=C(/Nc1cc(F)cc(Cl)c1)N[C@H]1CC[C@H](NC(=O)C2CC2)CC1)c1ccc(F)c(F)c1` [Compound 101] registered an IC50 of less than 10 µM. For the same compound, in assay [2], the EC50 is less than 10 µM.

By IC50 is commonly meant the concentration that inhibits the measured activity by half. Low values mean greater potency in that assay, high ones weaker potency in that assay. The term EC50 denotes the concentration that produces a half-maximal response.
